Experimental data published in US6313153A, “Compositions and methods for treating nephritis and inhibiting TGF -β related conditions using pyridylacrylamide derivatives” (Tsumura & Co., priority 1997, dated 2001).

Test system: anti-GBM nephritic mice
Test: anti-GBM nephritic mice: proteinuria, serum cholesterol, blood urea nitrogen and serum creatinine;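 as to Proteinuria 10th day: minus not effective plus trend double p<0.05 triple p<0.01 quadruple p<0.001 improvement vs control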;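 as to Proteinuria 5th day: minus not effective plus trend double p<0.05 triple p<0.01 quadruple p<0.001 improvement vs control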;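 as to Serum Parameter BUN (blood urea nitrogen): minus not effective plus trend double p<0.05 triple p<0.01 quadruple p<0.001 improvement vs control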;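 as to Serum Parameter S-Ch (serum cholesterol): minus not effective plus trend double p<0.05 triple p<0.01 quadruple p<0.001 improvement vs control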
Assay type: in vivo, BALB/c mice
Conditions: for Total Evaluation: 3 × (number of + in proteinuria) + (number of + in serum parameter); for Proteinuria 5th day: 5th day from intravenous injection of anti-GBM serum; for Proteinuria 5th day / Proteinuria 10th day / Serum Parameter BUN (blood urea nitrogen) / Serum Parameter S-Ch (serum cholesterol) / Serum Parameter S-Cr (serum creatinine): oral; for Proteinuria 10th day: 10th day from intravenous injection of anti-GBM serum; for Serum Parameter BUN (blood urea nitrogen) / Serum Parameter S-Ch (serum cholesterol) / Serum Parameter S-Cr (serum creatinine): 11th day
Procedure: BALB/c mice (5 weeks old, purchased from Nippon Charles Liver) were quarantined and adapted for about 1 week before subjecting to experiments. These mice were divided into several groups for the experiments so that average body weights and standard deviations were almost identical in all groups. Mouse anti-GBM (glomerular basement membrane) nephritis was caused by immunizing the mice with rabbit γ-globulin (1 mg) with Freund's complete adjuvant and intravenously injecting rabbit anti-mouse GBM serum on the fifth day from the immunization. Each compound tested was forcedly orally administered via an oral sonde almost simultaneously with the intravenous injection of the anti-GBM serum. On the 5th and 10th days from the intravenous injection, urine was taken by a plastic metabolic cage and proteinuria was measured (Ohtsuka Tonein TP2). On the 11th day, blood was taken by cutting the carotid and serum cholesterol (S--Ch), blood urea nitrogen (BUN) and serum creatinine (S--Cr) were measured by Toshiba TBA-380 autoanalyzer.

Compound | Total Evaluation | Proteinuria 5th day | Proteinuria 10th day | Serum Parameter BUN (blood urea nitrogen) | Serum Parameter S-Ch (serum cholesterol) | Serum Parameter S-Cr (serum creatinine)
COc1ccc(O)c(CCNC(=O)/C=C/c2cccnc2)c1 [Compound 50] | 18 | ++ | +++ | - | +++ | -
COc1ccc(OC)c(CCNC(=O)/C=C/c2cccnc2)c1 [Compound 39] | 21 | ++ | +++ | ++ | ++ | ++
CSc1ccc(CCN(C)C(=O)/C=C/c2cccnc2)cc1 [Compound 53] | 6 | - | + | - | - | +++
COC(=O)COc1ccccc1CCNC(=O)/C=C/c1cccnc1 [Compound 102] | 9 | + | ++ | - | - | -
CCOC(=O)COc1ccc(CCNC(=O)/C=C/c2cccnc2)cc1 [Compound 101] | 8 | - | ++ | - | - | ++
COc1ccc(CCN(C)C(=O)/C=C/c2cccnc2)c(OC)c1 [Compound 14] | 7 | - | + | + | + | -
O=C(/C=C/c1cccnc1)NCc1ccc(O)cc1 [Compound 45] | 10 | ++ | + | - | + | -
COc1cc(CCN(C)C(=O)/C=C/c2cccnc2)cc(OC)c1 [Compound 18] | 13 | + | ++ | ++ | ++ | -
O=C(/C=C/c1cccnc1)NCC(=O)c1cccc(O)c1 [Compound 160, (E)-N-(3-hydroxyphenacyl)-3-(3-pyridyl)-2-propenoic acid amide] | 14 | +++ | + | - | ++ | -
N#C/C(=C\c1cccnc1)C(=O)NCCc1cccc(O)c1 [Compound 8] | 6 | - | ++ | - | - | -
CCNC(=O)Oc1cccc(CCNC(=O)/C=C/c2cccnc2)c1 [Compound 127, (E)-N-[3-[(ethylcarbamoyl)oxy]-phenethyl]-3-(3-pyridyl)-2-propenoic acid amide] | 17 | +++ | ++ | - | ++ | -
CCOC(=O)COc1cccc(C(=O)CNC(=O)/C=C/c2cccnc2)c1 [Compound 161] | 10 | ++ | + | - | + | -
CCOC(=O)COc1cccc(CCNC(=O)/C=C/c2cccnc2)c1 [Compound 100] | 6 | - | + | + | + | +
COc1cc(C(=O)CN(C)C(=O)/C=C/c2cccnc2)ccc1O [Compound 162, (E)-N-methyl-N-(3-methoxy-4-hydroxyphenacyl)-3-(3-pyridyl)-2-propenoic acid amide] | 13 | +++ | + | - | + | -
O=C(/C=C(/c1ccccc1)c1cccnc1)NCCc1cccc(O)c1 [Compound 93] | 8 | - | - | +++ | ++ | +++
COc1ccc(OC)c(CCN(C)C(=O)/C=C/c2cccnc2)c1 [Compound 15] | 11 | + | + | + | + | +
COc1cc(CCN(C)C(=O)/C=C/c2cccnc2)cc(OC)c1OC.Cl [Compound 9, (E)-N-methyl-3-(3-pyridyl)-N-(3,4,5-trimethoxyphenethyl)-2-propenoic acid amide hydrochloride] | 12 | + | ++ | + | + | +
COc1ccc(C(CN(C)C(=O)/C=C/c2cccnc2)=NO)cc1OC [Compound 156, (E)-N-[2-(3,4-dimethoxyphenyl)-2-(hydroxyimino)ethyl]-N-methyl-3-(3-pyridyl)-2-propenoic acid amide] | 7 | + | + | - | + | -
COc1cccc(CCNC(=O)/C=C/c2cccnc2)c1 [Compound 41] | 8 | + | - | - | +++ | ++
O=C(/C=C/c1cccnc1)NCc1cccc(O)c1 [Compound 90] | 17 | ++ | +++ | + | - | +
O=C(/C=C/c1cccnc1)NCCc1cccc(O)c1 [Compound 75] | 19 | ++ | +++ | + | ++ | +
CCOC(=O)COc1cccc(C(O)CNC(=O)/C=C/c2cccnc2)c1 (stereo not drawn) [Compound 159, ethyl [3-[1-hydroxy-2-((E) -3-(3-pyridyl)acryloylamino]ethyl]phenoxy]acetate] | 10 | ++ | + | - | + | -
O=C(/C=C/c1cccnc1)NCCc1cccc(OCC(=O)NC2CCCC2)c1 [Compound 116] | 10 | + | + | ++ | + | +
CCNC(=O)Oc1ccc(CCN(C)C(=O)/C=C/c2cccnc2)cc1OC(=O)NCC [Compound 133] | 9 | + | + | + | + | +
O=C(/C=C/c1cccnc1)NCCc1cc(O)ccc1O [Compound 89] | 15 | ++ | ++ | + | ++ | -
COc1ccc(C(=O)CN(C)C(=O)/C=C/c2cccnc2)cc1OC [Compound 155, (E) -N-[2-(3,4-dimethoxyphenyl)-2-oxoethyl]-N-methyl-3-(3-pyridyl)-2-propenoicacid amide] | 28 | ++++ | ++++ | + | +++ | -
COc1cccc(CNC(=O)/C=C/c2cccnc2)c1 [Compound 42] | 9 | + | + | + | - | ++
O=C(/C=C/c1cccnc1)NCCc1ccc(O)cc1 [Compound 71] | 17 | + | +++ | ++ | - | ++
CNC(=O)COc1cccc(CCNC(=O)/C=C/c2cccnc2)c1 [Compound 114, (E)-N-[3-[(methyl-carbamoyl)methoxy]phenethyl]-3-(3-pyridyl)-2-propenoic acid amide] | 24 | +++ | +++ | ++ | +++ | +
CN(CCc1ccc(-c2ccccc2)cc1)C(=O)/C=C/c1cccnc1 [Compound 52] | 10 | + | + | + | + | ++
